Test results as given in patent publication US7723112B2, “Compositions and methods for treating and diagnosing cancer” (The Regents of the University of Michigan, priority 2005, dated 2010).
Read-outs that look alike come from different tables or passages of the source.

System: UM-C4 tumor cells
Settings: monitored four months
Description: Mice were monitored for tumor growth over a period of four months and scored as either positive or negative for tumor growth such that Poisson statistics could be done to assess TG cell frequency among the input population.

O=P1(N(CCCl)CCCl)NCCCO1 (stereo not shown) [CPA, Cyclophosphamide]
mice developing tumors / mice injected (input of 56 bulk tumor cells from CPA-treated tumors): 4/8
mice developing tumors / mice injected (input of 167 bulk tumor cells from CPA-treated tumors): 5/8
mice developing tumors / mice injected (input of 500 bulk tumor cells from CPA-treated tumors): 9/9
mice developing tumors (input of 1,500 bulk tumor cells from CPA-treated tumors): All eight
